Reference: US20130059879A1, “Small Molecule Inhibitors of PFKFB3 and Glycolytic Flux and Their Methods of Use as Anti-Cancer Therapeutics” (UNIVERSITY OF LOUISVILLE RESEARCH FOUNDATION, INC., priority 2010, published 2013)
≈ marks a conversion by molar mass, not a printed value.

Test system: not listed separately
Test: Microsomal stability in human liver microsomes
Format: in vitro ADME
Settings: 0 min
Procedure: Microsomal stability in vitro in different biologic media (liver microsomes, S9 fraction, hepatocytes) and species is ascertained to evaluate the rate at which a compound undergoes metabolism in the experimental in vitro conditions. Results for some compounds of the invention after a 60 minutes incubation period in human liver microsomes are shown in the Table 6 below. […] Experimental conditions are briefly described here: the stability in human liver microsomes of several compounds was done over […] at 37° C. using pooled mixed gender human liver microsomes. These liver microsomes were prepared at 1.0 mg/ml of microsomal protein in a 100 mM potassium phosphate pH 7.4 buffer with 1 mM NADPH. The media was incubated at 37° C. with the compound in solution in DMSO. The concentration of the compound was followed by LC/MS-MS as a function of time. Samples were assayed at t=0, 15, 30, and 60 minutes. Testosterone was used as a positive control. The same experiment was performed with mouse, rat or dog liver microsomes instead of human liver microsomes.

Row | HLM, Mean metabolized (%) | SMILES
1 | 0.0 | COc1cccc(C(=O)c2cc3c(ccc4ccccc43)[nH]2)c1 [ACT-PFK-096, (3H-Benzo[e]indol-2-yl)-(3-methoxy-phenyl)-methanone]
2 | 0.0 | COc1cc(C(=O)c2cc3c(ccc4ccccc43)[nH]2)ccc1O [ACT-PFK-108, (3H-Benzo[e]indol-2-yl)-(4-hydroxy-3-methoxylthenyl)-methanone]

Same assay, conditions: 60 min incubation, 1.0 mg/ml microsomal protein, 1 mM NADPH, 37° C.

Row | HLM, Mean metabolized (%) | SMILES
3 | 99 | COc1cccc(C(=O)c2cc3c(ccc4ccccc43)[nH]2)c1 [ACT-PFK-096, (3H-Benzo[e]indol-2-yl)-(3-methoxy-phenyl)-methanone]
4 | 73.3 | COc1cc(C(=O)c2cc3c(ccc4ccccc43)[nH]2)ccc1O [ACT-PFK-108, (3H-Benzo[e]indol-2-yl)-(4-hydroxy-3-methoxylthenyl)-methanone]

Molecular target: T1, PFKFB3 (Homo sapiens, UniProt Q16875)
T1 construct: GST
T1 sequence (Q16875 whole entry, species assumed): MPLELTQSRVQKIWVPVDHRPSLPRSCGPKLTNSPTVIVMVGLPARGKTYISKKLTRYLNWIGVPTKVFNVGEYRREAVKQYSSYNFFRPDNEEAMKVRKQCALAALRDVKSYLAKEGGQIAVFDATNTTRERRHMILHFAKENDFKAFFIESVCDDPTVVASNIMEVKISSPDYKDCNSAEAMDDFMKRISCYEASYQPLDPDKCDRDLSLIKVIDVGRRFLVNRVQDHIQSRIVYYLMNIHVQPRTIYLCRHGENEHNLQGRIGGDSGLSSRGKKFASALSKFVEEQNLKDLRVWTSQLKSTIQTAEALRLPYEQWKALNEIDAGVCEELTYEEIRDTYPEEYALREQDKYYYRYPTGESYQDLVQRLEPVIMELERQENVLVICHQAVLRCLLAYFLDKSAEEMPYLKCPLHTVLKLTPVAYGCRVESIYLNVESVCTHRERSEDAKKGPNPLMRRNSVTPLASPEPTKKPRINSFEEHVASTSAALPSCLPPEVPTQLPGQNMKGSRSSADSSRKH
Test: Inhibition of recombinant PFKFB3 kinase activity (ADP Glow assay)
Format: biochemical
Settings: 250 nM analog concentration; read-out: % Inhibition of PFKFB3 Enzymatic Activity
Procedure: PFKFB3 was prepared by expression in E. coli and purified by GST column and column chromatography. […] The recombinant protein was pure and active as determined by the results of a kinase activity assay commercially available (such as ADP Glow® assay, […]). The same assay was used to determine the inhibition of the protein and the results are shown in Table 5 below (IC50 values or percent inhibition at a fixed concentration). Results confirmed that the compounds of the invention have low nanomolar IC50 values, interacting with PFKFB3 and inhibiting its enzymatic activity.

Row | inhibition at 0.25 µM [%] | SMILES
5 | 0 | COc1cccc(C(=O)c2cc3c(ccc4ccccc43)[nH]2)c1 [ACT-PFK-096, (3H-Benzo[e]indol-2-yl)-(3-methoxy-phenyl)-methanone]

Test system: Jurkat cells
Test: Inhibition of 14C-2-deoxyglucose uptake
Format: cell-based
Settings: Homo sapiens, 3 hours
Procedure: Inhibition of PFKFB3 results in inhibiting glycolysis. Several feedback or feedforward activation and inhibition mechanisms exist so that, by a feedback mechanism, inhibiting the activity of PFKFB3 may inhibit glucose uptake by cells. An assay was developed to determine if there was inhibition of glucose uptake following exposure to the compounds on the invention. Briefly, Jurkat cells were plated at 1×10^5/mL in RPM′ 1640 supplemented with 10% fetal bovine serum and 50 μg/mL gentamicin sulfate. Cells were immediately treated with vehicle or 5 μmol/L of the compound of the invention for 3 hours and subsequently placed in glucose-free RPMI 1640 for 30 min. ^14C-2-deoxyglucose (0.25 μCi/mL; Perkin Elmer) was added for an additional 60 min and cells were then washed three with ice-cold RPMI 1640 containing no glucose. Cell lysates were collected in 500 μL of 0.1% SDS, and scintillation counts (counts/min) were measured on 400 μL of lysate. Counts were normalized to protein concentration.

Row | SMILES | inhibition at 5 µM [%]
6 | COc1cccc(C(=O)c2cc3c(ccc4ccccc43)[nH]2)c1 [ACT-PFK-096, (3H-Benzo[e]indol-2-yl)-(3-methoxy-phenyl)-methanone] | 29
7 | COc1cc(C(=O)c2cc3c(ccc4ccccc43)[nH]2)ccc1O [ACT-PFK-108, (3H-Benzo[e]indol-2-yl)-(4-hydroxy-3-methoxylthenyl)-methanone] | 2

Test system: NCI-H82
Test: Cancer cell proliferation, Alamar Blue assay, 72 hours
Format: cell-based
Settings: Homo sapiens, NCI-H82, read-out: IC50 NCl-H82
Procedure: (§1) The ability of the compounds described herein to kill or inhibit the proliferation of cancer cells was measured using either the MTT assay, or the Alamar Blue assay, or the Cell Titer Glow® assay using 48 or 72 hours exposure. […] The procedures are briefly described below. Cells of the desired tumor cell line were plated at 2×10^5 cells/ml in 96 well plates. Twice the indicated concentrations of the compounds of the invention were added to cells the following day in an equal volume of media. 72 hours later, cells were lysed and subjected to ATP determination using the CellTiter Glo-Luminescent Cell Viability Assay kit (Promega, Madison, Wis.). Experiments were done in triplicate. When using the MTT assay or the Alamar blue assay, the experimental conditions are essentially similar; at the end of the incubation period, 20 microliters of the MTT solution is added per well and the samples are incubated for an additional four hours, rinsed, and the absorbance at 570 nm measured. […] Table 2 lists the IC50 values for the compounds of the invention in several cell lines including Jurkat, Calu-6, NCI-H82, U937, HCT-116, and MDA-MB-231 cancer cell lines.

Row | IC50 [µM] | SMILES
8 | 0.155 | COc1cccc(C(=O)c2cc3c(ccc4ccccc43)[nH]2)c1 [ACT-PFK-096, (3H-Benzo[e]indol-2-yl)-(3-methoxy-phenyl)-methanone]
9 | 0.36 | COc1cc(C(=O)c2cc3c(ccc4ccccc43)[nH]2)ccc1O [ACT-PFK-108, (3H-Benzo[e]indol-2-yl)-(4-hydroxy-3-methoxylthenyl)-methanone]

Test system: Calu-6
Test: as above
Format: cell-based
Settings: Homo sapiens, Calu-6
Procedure: as §1

Row | IC50 [µM] | SMILES
10 | 0.02 | COc1cccc(C(=O)c2cc3c(ccc4ccccc43)[nH]2)c1 [ACT-PFK-096, (3H-Benzo[e]indol-2-yl)-(3-methoxy-phenyl)-methanone]
11 | 0.36 | COc1cc(C(=O)c2cc3c(ccc4ccccc43)[nH]2)ccc1O [ACT-PFK-108, (3H-Benzo[e]indol-2-yl)-(4-hydroxy-3-methoxylthenyl)-methanone]

Test system: MDA-MB-231
Test: as above
Format: cell-based
Settings: Homo sapiens
Procedure: as §1

Row | IC50 [µM] | SMILES
12 | 0.09 | COc1cc(C(=O)c2cc3c(ccc4ccccc43)[nH]2)ccc1O [ACT-PFK-108, (3H-Benzo[e]indol-2-yl)-(4-hydroxy-3-methoxylthenyl)-methanone]

Test system: Jurkat
Test: as above
Format: cell-based
Settings: Homo sapiens, Jurkat
Procedure: as §1

Row | IC50 [µM] | SMILES
13 | 1.5 | COc1cccc(C(=O)c2cc3c(ccc4ccccc43)[nH]2)c1 [ACT-PFK-096, (3H-Benzo[e]indol-2-yl)-(3-methoxy-phenyl)-methanone]
14 | 0.545 | COc1cc(C(=O)c2cc3c(ccc4ccccc43)[nH]2)ccc1O [ACT-PFK-108, (3H-Benzo[e]indol-2-yl)-(4-hydroxy-3-methoxylthenyl)-methanone]

Test system: HCT-116
Test: as above
Format: cell-based
Settings: Homo sapiens, HCT-116
Procedure: as §1

Row | IC50 [µM] | SMILES
15 | 0.695 | COc1cccc(C(=O)c2cc3c(ccc4ccccc43)[nH]2)c1 [ACT-PFK-096, (3H-Benzo[e]indol-2-yl)-(3-methoxy-phenyl)-methanone]
16 | 0.475 | COc1cc(C(=O)c2cc3c(ccc4ccccc43)[nH]2)ccc1O [ACT-PFK-108, (3H-Benzo[e]indol-2-yl)-(4-hydroxy-3-methoxylthenyl)-methanone]

Test system: U937
Test: as above
Format: cell-based
Settings: Homo sapiens, U-937
Procedure: as §1

Row | IC50 [µM] | SMILES
17 | 0.014 | COc1cccc(C(=O)c2cc3c(ccc4ccccc43)[nH]2)c1 [ACT-PFK-096, (3H-Benzo[e]indol-2-yl)-(3-methoxy-phenyl)-methanone]
18 | 0.205 | COc1cc(C(=O)c2cc3c(ccc4ccccc43)[nH]2)ccc1O [ACT-PFK-108, (3H-Benzo[e]indol-2-yl)-(4-hydroxy-3-methoxylthenyl)-methanone]

Test system: not listed separately
Test: Solubility in solvents and excipients, 1 hour at room temperature, HPLC
Format: physicochemical
Settings: aqueous with cosolvent or surfactant or cyclodextrin, thermodynamic from solid; Cre:EtOH:Saline 5:5:90 mixture, 1 hour at room temperature; read-out: Solubility Cre:EtOH:Saline
Procedure: Chemical properties of the compounds of the invention were investigated, including the solubility in several solvents and pharmaceutically accepted excipients. […] Briefly, selected compounds of the invention are dissolved in a small volume of the solvents/excipients of interest at room temperature over 1 hour in typically 1 ml and the concentration is measured by HPLC after filtration.

Row | solubility at 1 h [mg/mL] | SMILES
19 | 1.7 (≈ 5.64 mM) | COc1cccc(C(=O)c2cc3c(ccc4ccccc43)[nH]2)c1 [ACT-PFK-096, (3H-Benzo[e]indol-2-yl)-(3-methoxy-phenyl)-methanone]
20 | 4.8 (≈ 15.1 mM) | COc1cc(C(=O)c2cc3c(ccc4ccccc43)[nH]2)ccc1O [ACT-PFK-108, (3H-Benzo[e]indol-2-yl)-(4-hydroxy-3-methoxylthenyl)-methanone]

Same assay, conditions: ethanol, organic solvent or mixture, thermodynamic from solid; EtOH, 1 hour at room temperature; read-out: Solubility EtOH

Row | solubility at 1 h [mg/mL] | SMILES
21 | 2.8 (≈ 9.29 mM) | COc1cccc(C(=O)c2cc3c(ccc4ccccc43)[nH]2)c1 [ACT-PFK-096, (3H-Benzo[e]indol-2-yl)-(3-methoxy-phenyl)-methanone]
22 | 9.9 (≈ 31.2 mM) | COc1cc(C(=O)c2cc3c(ccc4ccccc43)[nH]2)ccc1O [ACT-PFK-108, (3H-Benzo[e]indol-2-yl)-(4-hydroxy-3-methoxylthenyl)-methanone]

Same assay, conditions: organic solvent or mixture, thermodynamic from solid; 1:1 cremophor EL-P:ethanol mixture, 1 hour at room temperature; read-out: Solubility Cre:EtOH

Row | solubility at 1 h [mg/mL] | SMILES
23 | 29.7 (≈ 98.6 mM) | COc1cccc(C(=O)c2cc3c(ccc4ccccc43)[nH]2)c1 [ACT-PFK-096, (3H-Benzo[e]indol-2-yl)-(3-methoxy-phenyl)-methanone]
24 | 78.1 (≈ 246 mM) | COc1cc(C(=O)c2cc3c(ccc4ccccc43)[nH]2)ccc1O [ACT-PFK-108, (3H-Benzo[e]indol-2-yl)-(4-hydroxy-3-methoxylthenyl)-methanone]

Same assay, conditions: organic solvent or mixture, thermodynamic from solid; Acetone, 1 hour at room temperature; read-out: Solubility Acetone

Row | solubility at 1 h [mg/mL] | SMILES
25 | 25.8 (≈ 85.6 mM) | COc1cccc(C(=O)c2cc3c(ccc4ccccc43)[nH]2)c1 [ACT-PFK-096, (3H-Benzo[e]indol-2-yl)-(3-methoxy-phenyl)-methanone]
26 | 12.8 (≈ 40.3 mM) | COc1cc(C(=O)c2cc3c(ccc4ccccc43)[nH]2)ccc1O [ACT-PFK-108, (3H-Benzo[e]indol-2-yl)-(4-hydroxy-3-methoxylthenyl)-methanone]

Same assay, conditions: organic solvent or mixture, thermodynamic from solid; Cremophor, 1 hour at room temperature; read-out: Solubility Cremophor

Row | solubility at 1 h [mg/mL] | SMILES
27 | 1.2 (≈ 3.98 mM) | COc1cccc(C(=O)c2cc3c(ccc4ccccc43)[nH]2)c1 [ACT-PFK-096, (3H-Benzo[e]indol-2-yl)-(3-methoxy-phenyl)-methanone]
28 | 37.6 (≈ 118 mM) | COc1cc(C(=O)c2cc3c(ccc4ccccc43)[nH]2)ccc1O [ACT-PFK-108, (3H-Benzo[e]indol-2-yl)-(4-hydroxy-3-methoxylthenyl)-methanone]

Same assay, conditions: organic solvent or mixture, thermodynamic from solid; DCM, 1 hour at room temperature; read-out: Solubility DCM

Row | solubility at 1 h [mg/mL] | SMILES
29 | 8.9 (≈ 29.5 mM) | COc1cccc(C(=O)c2cc3c(ccc4ccccc43)[nH]2)c1 [ACT-PFK-096, (3H-Benzo[e]indol-2-yl)-(3-methoxy-phenyl)-methanone]
30 | 11.1 (≈ 35 mM) | COc1cc(C(=O)c2cc3c(ccc4ccccc43)[nH]2)ccc1O [ACT-PFK-108, (3H-Benzo[e]indol-2-yl)-(4-hydroxy-3-methoxylthenyl)-methanone]

Same assay, conditions: organic solvent or mixture, thermodynamic from solid; Tween 80, 1 hour at room temperature; read-out: Solubility Tween 80

Row | solubility at 1 h [mg/mL] | SMILES
31 | 1.8 (≈ 5.97 mM) | COc1cccc(C(=O)c2cc3c(ccc4ccccc43)[nH]2)c1 [ACT-PFK-096, (3H-Benzo[e]indol-2-yl)-(3-methoxy-phenyl)-methanone]
32 | 16.9 (≈ 53.3 mM) | COc1cc(C(=O)c2cc3c(ccc4ccccc43)[nH]2)ccc1O [ACT-PFK-108, (3H-Benzo[e]indol-2-yl)-(4-hydroxy-3-methoxylthenyl)-methanone]

Same assay, conditions: organic solvent or mixture, thermodynamic from solid; Tween80:EtOH 6:4 mixture, 1 hour at room temperature; read-out: Solubility Twee80:EtOH

Row | solubility at 1 h [mg/mL] | SMILES
33 | 18.7 (≈ 62.1 mM) | COc1cccc(C(=O)c2cc3c(ccc4ccccc43)[nH]2)c1 [ACT-PFK-096, (3H-Benzo[e]indol-2-yl)-(3-methoxy-phenyl)-methanone]
34 | 10.3 (≈ 32.5 mM) | COc1cc(C(=O)c2cc3c(ccc4ccccc43)[nH]2)ccc1O [ACT-PFK-108, (3H-Benzo[e]indol-2-yl)-(4-hydroxy-3-methoxylthenyl)-methanone]
